Experimental data as given in US20110262508A1, “ANTIMICROBIAL COMPOSITIONS, FORMULATIONS AND USES THEREOF” (priority 2007, published 2011).
Peptide text beside a SMILES is read from it.

Tested on: A. baumannii ATCC 19606, Acinetobacter spp. ATCC 17903, Acinetobacter spp. ATCC 19004, E. coli BL21, S. aureus, S. typhimurium AroA, P. aeruginosa, P. …
Assay: Antibacterial spectrum over the serial dilution panel (Table 6)
Assay type: cell-based
Settings: summary of Table 6
Experimental: Synthetic peptides were tested for their ability to inhibit bacterial growth in liquid culture. The peptides were added at a concentration of between about 5 μM and about 10 μM to individual wells of 96-deep-well dishes that contained liquid growth media freshly inoculated with one of the following bacteria: A. baumannii ATCC Accession No. 19606, Acinetobacter spp. ATCC 17903, Acinetobacter spp. ATCC 19004, Escherichia coli strain BL21, S. aureus, S. typhimurium strain AroA, P. aeruginosa or P. pneumotropica. After 5-6 hours of shaking at 37° C., growth was measured as absorbance at 595 nm. As a control, cultures were grown in the presence of 0.1% acetonitrile (i.e., the concentration present in 10 μM peptide).

Row | Structure (SMILES) | selectively inhibited growth of S. aureus | further results
1 | CC[C@H](C)[C@H](NC(=O)[C@H](CC(C)C)NC(=O)[C@H](CCCNC(=N)N)NC(=O)[C@@H](NC(=O)[C@@H](NC(=O)[C@H](Cc1ccc(O)cc1)NC(=O)[C@H](CCCCN)NC(=O)[C@@H](N)Cc1ccc(O)cc1)[C@@H](C)CC)[C@@H](C)CC)C(=O)N[C@@H](CCC(=O)O)C(=O)N[C@@H](CC(N)=O)C(=O)N[C@@H](Cc1c[nH]c2ccccc12)C(=O)NCC(=O)N[C@@H](CCC(=O)O)C(=O)N[C@@H](CS)C(=O)NCC(=O)N[C@@H](CS)C(=O)N[C@@H](CCCNC(=N)N)C(=O)N[C@@H](Cc1ccc(O)cc1)C(=O)N[C@@H](CS)C(=O)N[C@@H](CCCNC(=N)N)C(=O)N[C@H](C(=O)N[C@H](C(=O)N[C@@H](CCCNC(=N)N)C(=O)O)C(C)C)[C@@H](C)CC [Ac18] (H-YKYIIRLIENWGECGCRYCRIVR-OH; N-terminus and C-terminus assumed) | selectively inhibited growth | 
2 | CC(C)C[C@H](NC(=O)CNC(=O)[C@@H]1CCCN1C(=O)[C@H](Cc1c[nH]c2ccccc12)NC(=O)[C@H](CCCCN)NC(=O)[C@H](CCCCN)NC(=O)[C@H](CCCNC(=N)N)NC(=O)[C@H](C)NC(=O)[C@H](CCC(N)=O)NC(=O)[C@@H]1CCCN1)C(=O)NCC(=O)N[C@@H](CC(N)=O)C(=O)N[C@@H](CCC(=O)O)C(=O)N[C@H](C(=O)N[C@H](C(=O)N[C@@H](C)C(=O)N[C@@H](CCCNC(=N)N)C(=O)N[C@@H](CC(C)C)C(=O)N[C@@H](CC(C)C)C(=O)N[C@H](C(=O)N[C@H](C(=O)N[C@@H](CO)C(=O)N[C@@H](C)C(=O)O)C(C)C)[C@@H](C)O)[C@@H](C)O)C(C)C [Ac100] (H-PQARKKWPGLGNEVTARLLTVSA-OH; N-terminus and C-terminus assumed) | selectively inhibited growth | 
3 | CSCC[C@H](NC(=O)[C@H](CCCNC(=N)N)NC(=O)[C@H](CO)NC(=O)[C@H](CCCNC(=N)N)NC(=O)[C@H](CCCNC(=N)N)NC(=O)[C@H](CC(N)=O)NC(=O)[C@H](Cc1c[nH]cn1)NC(=O)[C@@H]1CCCN1C(=O)[C@H](Cc1c[nH]cn1)NC(=O)[C@@H]1CCCN1C(=O)[C@H](Cc1c[nH]cn1)NC(=O)[C@@H](NC(=O)[C@H](CCC(N)=O)NC(=O)[C@@H](NC(=O)[C@H](Cc1ccc(O)cc1)NC(=O)[C@H](Cc1c[nH]cn1)NC(=O)[C@H](Cc1c[nH]cn1)NC(=O)[C@H](Cc1c[nH]cn1)NC(=O)[C@@H](N)Cc1c[nH]c2ccccc12)[C@@H](C)O)[C@@H](C)O)C(=O)N[C@@H](CO)C(=O)N[C@@H](CCCNC(=N)N)C(=O)N[C@@H](C)C(=O)N[C@@H](CCCNC(=N)N)C(=O)O [Ac56] (H-WHHHYTQTHPHPHNRRSRMSRAR-OH; N-terminus and C-terminus assumed) | selectively inhibited growth | 
4 | CC[C@H](C)[C@H](NC(=O)[C@H](Cc1c[nH]c2ccccc12)NC(=O)[C@H](CC(=O)O)NC(=O)[C@H](CO)NC(=O)[C@H](CO)NC(=O)[C@H](CC(C)C)NC(=O)[C@H](CC(C)C)NC(=O)[C@H](C)NC(=O)[C@H](CO)NC(=O)[C@H](CCCNC(=N)N)NC(=O)[C@H](CC(C)C)NC(=O)[C@@H](N)CCCNC(=N)N)C(=O)N[C@H](C(=O)N[C@@H](CO)C(=O)N[C@@H](CO)C(=O)N[C@@H](CCCNC(=N)N)C(=O)N[C@@H](CC(C)C)C(=O)N[C@@H](CC(C)C)C(=O)NCC(=O)N[C@H](C(=O)N[C@@H](CC(N)=O)C(=O)N[C@@H](CO)C(=O)N[C@@H](CCC(N)=O)C(=O)O)C(C)C)C(C)C [Ac41] (H-RLRSALLSSDWIVSSRLLGVNSQ-OH; N-terminus and C-terminus assumed) |  | selectively inhibited growth of Acinetobacter spp. ATCC 19004, and S. aureus: selectively inhibited growth
5 | CC[C@H](C)[C@H](NC(=O)[C@H](CC(C)C)NC(=O)[C@H](CCCNC(=N)N)NC(=O)[C@@H](NC(=O)[C@@H](NC(=O)[C@H](Cc1ccc(O)cc1)NC(=O)[C@H](CCCCN)NC(=O)[C@@H](N)Cc1ccc(O)cc1)[C@@H](C)CC)[C@@H](C)CC)C(=O)N[C@@H](CCC(=O)O)C(=O)N[C@@H](CC(N)=O)C(=O)N[C@@H](Cc1c[nH]c2ccccc12)C(=O)NCC(=O)N[C@@H](CCC(=O)O)C(=O)N[C@@H](CO)C(=O)NCC(=O)N[C@@H](CO)C(=O)N[C@@H](CCCNC(=N)N)C(=O)N[C@@H](Cc1ccc(O)cc1)C(=O)N[C@@H](CO)C(=O)N[C@@H](CCCNC(=N)N)C(=O)N[C@H](C(=O)N[C@H](C(=O)N[C@@H](CCCNC(=N)N)C(=O)O)C(C)C)[C@@H](C)CC [Ac19] (H-YKYIIRLIENWGESGSRYSRIVR-OH) |  | selectively inhibited growth of A. baumannii ATCC Accession No. 19606, Acinetobacter spp. ATCC 17903, Acinetobacter spp. ATCC 19004, and S. aureus: selectively inhibited growth
6 | CC[C@H](C)[C@H](NC(=O)[C@H](CC(C)C)NC(=O)[C@H](CCCCN)NC(=O)[C@@H](N)Cc1ccccc1)C(=O)N1CCC[C@H]1C(=O)N[C@H](C(=O)N[C@@H](CCCNC(=N)N)C(=O)N[C@@H](CCCNC(=N)N)C(=O)N[C@@H](CO)C(=O)N[C@@H](CO)C(=O)N[C@@H](CC(C)C)C(=O)N[C@H](C(=O)N[C@@H](CCCCN)C(=O)N[C@@H](CO)C(=O)N[C@@H](CC(C)C)C(=O)N1CCC[C@H]1C(=O)N[C@@H](C)C(=O)N[C@@H](Cc1ccccc1)C(=O)N[C@@H](CCCNC(=N)N)C(=O)N[C@@H](CCCNC(=N)N)C(=O)N[C@@H](CCCCN)C(=O)N[C@@H](C)C(=O)N1CCC[C@H]1C(=O)O)C(C)C)[C@@H](C)O [Ac116] (H-FKLIPTRRSSLVKSLPAFRRKAP-OH; N-terminus and C-terminus assumed) |  | selectively inhibited growth of Acinetobacter spp. ATCC 19004: selectively inhibited growth
7 | CC[C@H](C)[C@H](NC(=O)[C@H](CCCNC(=N)N)NC(=O)[C@H](CCCNC(=N)N)NC(=O)[C@H](CS)NC(=O)CN)C(=O)N[C@H](C(=O)NCC(=O)N[C@@H](Cc1ccccc1)C(=O)N[C@@H](CS)C(=O)N[C@H](C(=O)NCC(=O)N[C@@H](Cc1c[nH]c2ccccc12)C(=O)N[C@@H](CCCNC(=N)N)C(=O)N[C@@H](CC(C)C)C(=O)N[C@@H](CC(C)C)C(=O)N[C@@H](CC(C)C)C(=O)N[C@@H](CC(C)C)C(=O)N[C@@H](CC(C)C)C(=O)N[C@H](C(=O)NCC(=O)N[C@@H](CO)C(=O)NCC(=O)N[C@H](C(=O)O)C(C)C)[C@@H](C)O)C(C)C)[C@@H](C)O [Ac103] (H-GCRRITGFCVGWRLLLLLTGSGV-OH; N-terminus and C-terminus assumed) | selectively inhibited growth | 
8 | CC[C@H](C)[C@H](NC(=O)CN)C(=O)NCC(=O)N[C@@H](CCCCN)C(=O)N[C@@H](Cc1ccccc1)C(=O)N[C@@H](CC(C)C)C(=O)N[C@@H](Cc1c[nH]cn1)C(=O)N[C@@H](CO)C(=O)N[C@@H](C)C(=O)N[C@@H](CCCCN)C(=O)N[C@@H](CCCCN)C(=O)N[C@@H](Cc1ccccc1)C(=O)NCC(=O)N[C@@H](CCCCN)C(=O)N[C@@H](C)C(=O)N[C@@H](Cc1ccccc1)C(=O)N[C@H](C(=O)NCC(=O)N[C@@H](CCC(=O)O)C(=O)N[C@H](C(=O)N[C@@H](CCSC)C(=O)N[C@@H](CC(N)=O)C(=O)N[C@@H](CO)C(=O)O)[C@@H](C)CC)C(C)C [Ac178, reference compound] (H-GIGKFLHSAKKFGKAFVGEIMNS-OH; N-terminus and C-terminus assumed) | selectively inhibited growth | 
